# In US20230017786A1, “DEXTR[…] A DISEASE-MODIFYING TREATMENT FOR NEUROPSYCHIATRIC DISORDERS AND DISEASES” (priority 2020, published 2023):
# Counter-ions that a name gives are not always drawn.
# Legend:
# [1] = target: T1, human NMDA receptor GluN1-GluN2A (Homo sapiens, UniProt Q05586+Q12879); test: FLIPR calcium assay, test item effect on L-glutamate CRC, GluN1-GluN2A-CHO; type: cell-based
# T1 construct: expressed in transfected cells; host or cells: CHO
# Description: (§1) FLIPR determination of intracellular calcium level was used as a read-out for NMDAR activation.
# (§2) 400× compound plate was stored at −20° C. until FLIPR experimental day.
# (§3) 4× compound plate was generated from 400× compound plate by addition of up to 30 μl/well of compound buffer on FLIPR experimental day.
# (§4) A FLIPR system was used to monitor intracellular calcium level in NMDAR cell lines, pre-loaded for 1 hour with Fluo-4, and then washed with assay buffer.
# (§5) Y=Bottom+(Top−Bottom)/(1+10^((LogEC50−Log[A])*HillSlope))
# [2] = target: T2, human NMDA receptor GluN1-GluN2B (Homo sapiens, UniProt Q05586+Q13224); test: cell-based; type: cell-based
# T2 construct: expressed in transfected cells; host or cells: CHO
# Description: as §1, §2, §3, §4, §5
# [3] = target: T3, human NMDA receptor GluN1-GluN2C (Homo sapiens, UniProt Q05586+Q14957); test: FLIPR calcium assay, test item effect on L-glutamate CRC, GluN1-GluN2C-CHO; type: cell-based
# T3 construct: expressed in transfected cells; host or cells: CHO
# Description: as §1, §2, §3, §4, §5
# [4] = target: T4, human NMDA receptor GluN1-GluN2D (Homo sapiens, UniProt O15399+Q05586); test: FLIPR calcium assay, test item effect on L-glutamate CRC, GluN1-GluN2D-CHO; type: cell-based
# T4 construct: expressed in transfected cells; host or cells: CHO
# Description: as §1, §2, §3, §4, §5
# [5] = test system: diheteromeric human recombinant NMDAR containing GluN1 plus GluN2A, GluN2B, GluN2C or GluN2D; test: FLIPR calcium assay, statements for all four NMDAR subtypes together; type: cell-based; conditions: 6 test item concentrations
# From the text: An operational equation for allosteric modulators (Leach K, Sexton P M and Christopoulos A, Allosteric GPCR modulators: taking advantage of permissive receptor pharmacology, Trends Pharmacol. Sci. 28: 382-389, 2007; Kenakin T P, Overview of receptor interaction of agonists and antagonists, Curr. Protoc. Pharmacol. Chapter 4: Unit 4.1, 2008, Kenakin T P, Biased signalling and allosteric machines: new vistas and challenges for drug discovery, Br. J. Pharmacol. 165: 1659-1669, 2012) was created in Prism 8 (GraphPad) software to estimate KB and a parameters for every test item, with the assumption that, as a pore blocker, every test item would be able to produce a compete blockade of agonist response, at sufficiently high concentration: […]
# rat brain = conditions: 75 mg/kg; Hashimoto et al., 1996; cited from earlier work
# [6] = highest affinity for a NMDAR subtype = 100%
# [7] = operational analysis for allosteric modulators
# [8] = operational analysis for allosteric modulators, read-out: KB (M), estimated test item equilibrium dissociation constant
# T3 sequence (Q14957 20-1233, other chains not shown): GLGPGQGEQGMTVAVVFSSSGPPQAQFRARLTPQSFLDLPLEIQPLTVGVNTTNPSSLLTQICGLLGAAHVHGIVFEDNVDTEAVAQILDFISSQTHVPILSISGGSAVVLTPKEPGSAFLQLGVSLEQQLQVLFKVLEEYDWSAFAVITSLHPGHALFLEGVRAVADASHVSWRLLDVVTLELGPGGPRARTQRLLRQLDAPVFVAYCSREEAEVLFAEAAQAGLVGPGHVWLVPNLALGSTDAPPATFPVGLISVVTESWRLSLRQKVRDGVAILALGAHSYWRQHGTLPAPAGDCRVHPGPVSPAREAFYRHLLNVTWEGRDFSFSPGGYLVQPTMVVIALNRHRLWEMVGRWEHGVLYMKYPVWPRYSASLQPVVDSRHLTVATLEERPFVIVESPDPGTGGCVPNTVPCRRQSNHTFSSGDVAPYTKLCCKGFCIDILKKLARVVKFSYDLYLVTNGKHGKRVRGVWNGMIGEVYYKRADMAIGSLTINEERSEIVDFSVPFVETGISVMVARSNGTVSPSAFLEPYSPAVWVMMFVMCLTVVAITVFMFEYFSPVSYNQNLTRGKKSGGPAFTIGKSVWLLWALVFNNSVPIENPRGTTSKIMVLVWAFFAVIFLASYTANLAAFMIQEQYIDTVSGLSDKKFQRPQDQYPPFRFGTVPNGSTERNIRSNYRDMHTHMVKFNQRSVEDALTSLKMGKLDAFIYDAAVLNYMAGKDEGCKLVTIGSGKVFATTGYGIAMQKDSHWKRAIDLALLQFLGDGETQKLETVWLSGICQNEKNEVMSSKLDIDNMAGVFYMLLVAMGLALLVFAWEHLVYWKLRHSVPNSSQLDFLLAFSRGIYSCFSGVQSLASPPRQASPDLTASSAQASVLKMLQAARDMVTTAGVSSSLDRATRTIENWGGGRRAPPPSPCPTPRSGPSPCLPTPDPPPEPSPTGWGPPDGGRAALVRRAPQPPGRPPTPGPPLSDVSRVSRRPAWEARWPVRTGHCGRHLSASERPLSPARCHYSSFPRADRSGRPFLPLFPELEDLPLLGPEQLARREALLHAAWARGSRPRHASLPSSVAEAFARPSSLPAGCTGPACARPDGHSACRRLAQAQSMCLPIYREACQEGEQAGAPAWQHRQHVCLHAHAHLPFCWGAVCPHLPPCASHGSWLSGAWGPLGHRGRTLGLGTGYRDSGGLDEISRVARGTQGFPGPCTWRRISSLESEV
# T2 sequence (Q13224 27-1484, other chains not shown): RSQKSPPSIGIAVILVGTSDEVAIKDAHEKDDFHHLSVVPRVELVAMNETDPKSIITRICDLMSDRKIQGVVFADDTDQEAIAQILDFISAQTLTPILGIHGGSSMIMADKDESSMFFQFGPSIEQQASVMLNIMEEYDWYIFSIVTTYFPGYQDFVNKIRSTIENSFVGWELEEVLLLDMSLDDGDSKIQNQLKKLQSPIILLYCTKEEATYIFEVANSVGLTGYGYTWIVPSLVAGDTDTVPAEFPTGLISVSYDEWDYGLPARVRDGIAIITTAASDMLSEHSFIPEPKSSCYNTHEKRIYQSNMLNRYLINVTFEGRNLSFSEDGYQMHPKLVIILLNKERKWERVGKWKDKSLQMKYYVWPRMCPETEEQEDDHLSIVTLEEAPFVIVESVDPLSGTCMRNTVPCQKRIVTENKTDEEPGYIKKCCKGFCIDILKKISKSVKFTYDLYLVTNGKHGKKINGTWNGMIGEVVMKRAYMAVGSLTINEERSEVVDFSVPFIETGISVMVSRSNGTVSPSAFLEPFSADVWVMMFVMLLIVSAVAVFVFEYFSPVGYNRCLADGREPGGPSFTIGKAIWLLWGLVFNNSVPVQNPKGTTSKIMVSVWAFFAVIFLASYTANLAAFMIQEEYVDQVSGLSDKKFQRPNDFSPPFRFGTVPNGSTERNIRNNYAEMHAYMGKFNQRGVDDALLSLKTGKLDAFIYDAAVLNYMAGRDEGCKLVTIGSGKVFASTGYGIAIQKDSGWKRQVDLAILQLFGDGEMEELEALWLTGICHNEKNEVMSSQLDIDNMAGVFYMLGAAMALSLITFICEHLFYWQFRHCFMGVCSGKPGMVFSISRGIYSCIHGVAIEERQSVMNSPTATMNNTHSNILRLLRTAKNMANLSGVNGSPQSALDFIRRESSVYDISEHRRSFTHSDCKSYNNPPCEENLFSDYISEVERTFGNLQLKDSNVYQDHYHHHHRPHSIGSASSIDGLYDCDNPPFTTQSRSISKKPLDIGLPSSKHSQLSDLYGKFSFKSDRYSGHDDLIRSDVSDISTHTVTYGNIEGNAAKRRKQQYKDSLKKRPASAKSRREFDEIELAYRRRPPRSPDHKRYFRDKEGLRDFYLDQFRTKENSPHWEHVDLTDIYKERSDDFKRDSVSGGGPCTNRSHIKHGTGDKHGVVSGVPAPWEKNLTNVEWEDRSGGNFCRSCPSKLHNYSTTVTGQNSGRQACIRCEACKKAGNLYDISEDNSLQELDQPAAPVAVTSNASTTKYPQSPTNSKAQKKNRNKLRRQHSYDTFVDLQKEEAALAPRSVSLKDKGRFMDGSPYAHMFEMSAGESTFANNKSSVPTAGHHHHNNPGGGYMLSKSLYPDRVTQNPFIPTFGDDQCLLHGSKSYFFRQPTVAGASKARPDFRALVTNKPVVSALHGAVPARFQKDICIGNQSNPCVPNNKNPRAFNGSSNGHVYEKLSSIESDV
# T1 sequence (Q12879 23-1464, other chains not shown): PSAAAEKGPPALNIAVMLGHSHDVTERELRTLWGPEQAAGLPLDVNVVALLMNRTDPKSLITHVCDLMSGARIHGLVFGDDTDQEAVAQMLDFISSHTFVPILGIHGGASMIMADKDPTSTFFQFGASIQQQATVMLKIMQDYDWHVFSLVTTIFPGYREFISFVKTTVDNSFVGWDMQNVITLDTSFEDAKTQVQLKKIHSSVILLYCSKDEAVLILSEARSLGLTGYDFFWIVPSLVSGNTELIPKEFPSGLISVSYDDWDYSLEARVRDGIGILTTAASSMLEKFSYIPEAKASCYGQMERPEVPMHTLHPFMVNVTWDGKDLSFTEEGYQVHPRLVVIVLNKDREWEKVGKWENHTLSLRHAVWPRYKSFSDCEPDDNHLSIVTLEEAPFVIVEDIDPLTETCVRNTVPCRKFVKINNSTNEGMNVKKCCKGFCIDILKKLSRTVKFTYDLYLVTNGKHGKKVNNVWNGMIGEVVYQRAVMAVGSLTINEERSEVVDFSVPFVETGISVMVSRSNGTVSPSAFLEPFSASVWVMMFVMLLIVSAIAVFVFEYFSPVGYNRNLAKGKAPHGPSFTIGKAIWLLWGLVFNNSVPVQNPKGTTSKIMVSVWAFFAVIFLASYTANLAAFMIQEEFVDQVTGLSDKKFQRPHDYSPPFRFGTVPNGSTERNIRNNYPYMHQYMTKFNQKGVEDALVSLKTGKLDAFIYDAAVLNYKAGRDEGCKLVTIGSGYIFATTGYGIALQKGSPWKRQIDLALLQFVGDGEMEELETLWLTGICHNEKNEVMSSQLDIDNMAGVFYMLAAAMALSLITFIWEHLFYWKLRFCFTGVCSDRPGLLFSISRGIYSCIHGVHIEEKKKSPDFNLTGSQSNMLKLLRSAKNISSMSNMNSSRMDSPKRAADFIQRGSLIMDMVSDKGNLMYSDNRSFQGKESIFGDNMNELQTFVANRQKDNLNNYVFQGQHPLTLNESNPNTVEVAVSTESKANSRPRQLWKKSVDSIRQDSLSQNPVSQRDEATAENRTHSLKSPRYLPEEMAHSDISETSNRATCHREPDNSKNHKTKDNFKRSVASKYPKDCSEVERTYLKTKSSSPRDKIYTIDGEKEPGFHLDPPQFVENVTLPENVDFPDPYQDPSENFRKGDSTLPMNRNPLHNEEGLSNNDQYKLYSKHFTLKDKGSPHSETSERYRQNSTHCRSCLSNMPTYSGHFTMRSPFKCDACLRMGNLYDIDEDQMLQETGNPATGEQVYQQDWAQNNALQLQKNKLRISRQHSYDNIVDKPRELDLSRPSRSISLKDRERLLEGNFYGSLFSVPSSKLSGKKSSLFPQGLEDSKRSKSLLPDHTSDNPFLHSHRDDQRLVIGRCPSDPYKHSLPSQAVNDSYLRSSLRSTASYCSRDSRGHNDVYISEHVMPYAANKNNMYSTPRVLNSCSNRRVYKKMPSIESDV
compound,measurement,setting,value
"COc1ccc2c(c1)[C@]13CCCC[C@@H]1[C@H](C2)N(C)CC3 [Dextromethorphan, dextromethorphan hydrobromide monohydrate]",% affinity ratio,[1]; [6],13%
same,"α, estimated cooperativity term",[1]; [7],0.25
same,Kb,[1]; [8],9.6e-06 M
same,L-glutamate CRC HillSlope,[1]; with test item 49 nM,1.0
same,L-glutamate CRC LogEC50,[1]; with test item 49 nM,−6.6
same,L-glutamate CRC HillSlope,[1]; with test item 195 nM,1.2
same,L-glutamate CRC LogEC50,[1]; with test item 195 nM,−6.6
same,L-glutamate CRC HillSlope,[1]; with test item 781 nM,1.3
same,L-glutamate CRC LogEC50,[1]; with test item 781 nM,−6.4
same,L-glutamate CRC HillSlope,[1]; with test item 3.1 μM,1.3
same,L-glutamate CRC LogEC50,[1]; with test item 3.1 μM,−6.5
same,L-glutamate CRC HillSlope,[1]; with test item 12.5 μM,1.1
same,L-glutamate CRC LogEC50,[1]; with test item 12.5 μM,−6.4
same,L-glutamate CRC HillSlope,[1]; with test item 50 μM,1.3
same,L-glutamate CRC LogEC50,[1]; with test item 50 μM,−6.2
same,% affinity ratio,[2]; [6],63%
same,"α, estimated cooperativity term",[2]; [7],0.13
same,Kb,[2]; [8],1.9e-06 M
same,L-glutamate CRC HillSlope,[2]; with test item 49 nM,1.2
same,L-glutamate CRC LogEC50,[2]; with test item 49 nM,−6.7
same,L-glutamate CRC HillSlope,[2]; with test item 195 nM,1.1
same,L-glutamate CRC LogEC50,[2]; with test item 195 nM,−6.7
same,L-glutamate CRC HillSlope,[2]; with test item 781 nM,1.3
same,L-glutamate CRC LogEC50,[2]; with test item 781 nM,−6.6
same,L-glutamate CRC HillSlope,[2]; with test item 3.1 μM,1.3
same,L-glutamate CRC LogEC50,[2]; with test item 3.1 μM,−6.7
same,L-glutamate CRC HillSlope,[2]; with test item 12.5 μM,1.2
same,L-glutamate CRC LogEC50,[2]; with test item 12.5 μM,−6.7
same,L-glutamate CRC HillSlope,[2]; with test item 50 μM,0.83
same,L-glutamate CRC LogEC50,[2]; with test item 50 μM,−6.2
same,% affinity ratio,[3]; [6],100%
same,"α, estimated cooperativity term",[3]; [7],0.24
same,Kb,[3]; [8],1.2e-06 M
same,L-glutamate CRC HillSlope,[3]; with test item 49 nM,1.3
same,L-glutamate CRC LogEC50,[3]; with test item 49 nM,−7.0
same,L-glutamate CRC HillSlope,[3]; with test item 195 nM,1.4
same,L-glutamate CRC LogEC50,[3]; with test item 195 nM,−6.8
same,L-glutamate CRC HillSlope,[3]; with test item 781 nM,1.6
same,L-glutamate CRC LogEC50,[3]; with test item 781 nM,−6.8
same,L-glutamate CRC HillSlope,[3]; with test item 3.1 μM,1.6
same,L-glutamate CRC LogEC50,[3]; with test item 3.1 μM,−6.7
same,L-glutamate CRC HillSlope,[3]; with test item 12.5 μM,1.5
same,L-glutamate CRC LogEC50,[3]; with test item 12.5 μM,−6.7
same,L-glutamate CRC HillSlope,[3]; with test item 50 μM,3.0
same,L-glutamate CRC LogEC50,[3]; with test item 50 μM,−6.8
same,Kb,"[4]; KB Table, absence of extracellular Mg2+, read-out: KB",6.7 µM
same,% affinity ratio,[4]; [6],18%
same,"α, estimated cooperativity term",[4]; [7],0.34
same,L-glutamate CRC HillSlope,[4]; with test item 49 nM,1.7
same,L-glutamate CRC LogEC50,[4]; with test item 49 nM,−7.5
same,L-glutamate CRC HillSlope,[4]; with test item 195 nM,1.4
same,L-glutamate CRC LogEC50,[4]; with test item 195 nM,−7.5
same,L-glutamate CRC HillSlope,[4]; with test item 781 nM,1.7
same,L-glutamate CRC LogEC50,[4]; with test item 781 nM,−7.4
same,L-glutamate CRC HillSlope,[4]; with test item 3.1 μM,1.9
same,L-glutamate CRC LogEC50,[4]; with test item 3.1 μM,−7.3
same,L-glutamate CRC HillSlope,[4]; with test item 12.5 μM,1.7
same,L-glutamate CRC LogEC50,[4]; with test item 12.5 μM,−7.1
same,L-glutamate CRC HillSlope,[4]; with test item 50 μM,1.9
same,L-glutamate CRC LogEC50,[4]; with test item 50 μM,−6.8
same,profile on L-glutamate CRC,[5],insurmountable profile
same,vacuolization in rats' brains,rat brain,cause vacuolization
